In general, EC50 refers to the midpoint of the concentration-response curve.

The values below come from ChEMBL document CHEMBL5725899, “Benzofurans substituted with primary benzamide as HCV inhibitors” (2018).

The nature of the assay: HCV Replicon Luciferase Assay: To evaluate compound efficacy, titrated compounds were transferred to sterile 384-well tissue culture treated plates, and the plates were seeded with HCV replicon cells (50 μL at a density of 2.4×10^3 cells/well) in DMEM containing 4% FBS (final DMSO concentration at 0.5%). After 3 days incubation at 37° C., cells were analyzed for Renilla Luciferase activity using the EnduRen substrate (Promega cat #E6485) according to the manufacturer's directions. Briefly, the EnduRen substrate was diluted in DMEM and then added to the plates to a final concentration of 7.5 μM. The plates were incubated for at least 1 h at 37° C. then read on a Viewlux Imager (PerkinElmer) using a luminescence program. The 50% effective concentration (EC50) was calculated using the four-parameter logistic formula noted above.To assess cytotoxicity of compounds, Cell Titer-Blue (Promega) was added to the EnduRen-containing plates and incubated for at least 4 hrs at 37° C. The fluorescence signal from each well was read using a Viewlux Imager. All CC50 values were calculated using the four-parameter logistic formula. The note with it: 72 h.

For `CNC(=O)c1c(-c2ccc(F)cc2)oc2cc(N(CCF)S(C)(=O)=O)c(-c3cccc(C(=O)N[C@H](COC)C4CC4)c3)cc12`, the concentration for a half-maximal effect (EC50) is below 100 nM.

Consider `CNC(=O)c1c(-c2ccc(F)cc2)oc2cc(N(CCF)S(C)(=O)=O)c(-c3cccc(C(=O)N[C@@H](COC)C4CC4)c3)cc12`, for which the EC50 is below 100 nM.
